Assay results taken from publication PMC6197744, “Triazolo[4,5-d]pyrimidines as Validated General Control Nonderepressible 2 (GCN2) Protein Kinase Inhibitors Reduce Growth of Leukemia Cells” (Computational and Structural Biotechnology Journal, 2018).
Values after ≈ are worked out from the molar mass of the structure shown.

What was measured:
PERK = target: T1, PERK (Homo sapiens, UniProt Q9NZJ5); test: radiometric HotSpot kinase assay; assay type: biochemical; details: 10 μM compound, 10 μM ATP; read-out: % Enzyme inhibition at 10 μM, PERK
T1 construct: purchased Reaction Biology Corporation (Malvern, PA)
T1 sequence (Q9NZJ5 30-1116): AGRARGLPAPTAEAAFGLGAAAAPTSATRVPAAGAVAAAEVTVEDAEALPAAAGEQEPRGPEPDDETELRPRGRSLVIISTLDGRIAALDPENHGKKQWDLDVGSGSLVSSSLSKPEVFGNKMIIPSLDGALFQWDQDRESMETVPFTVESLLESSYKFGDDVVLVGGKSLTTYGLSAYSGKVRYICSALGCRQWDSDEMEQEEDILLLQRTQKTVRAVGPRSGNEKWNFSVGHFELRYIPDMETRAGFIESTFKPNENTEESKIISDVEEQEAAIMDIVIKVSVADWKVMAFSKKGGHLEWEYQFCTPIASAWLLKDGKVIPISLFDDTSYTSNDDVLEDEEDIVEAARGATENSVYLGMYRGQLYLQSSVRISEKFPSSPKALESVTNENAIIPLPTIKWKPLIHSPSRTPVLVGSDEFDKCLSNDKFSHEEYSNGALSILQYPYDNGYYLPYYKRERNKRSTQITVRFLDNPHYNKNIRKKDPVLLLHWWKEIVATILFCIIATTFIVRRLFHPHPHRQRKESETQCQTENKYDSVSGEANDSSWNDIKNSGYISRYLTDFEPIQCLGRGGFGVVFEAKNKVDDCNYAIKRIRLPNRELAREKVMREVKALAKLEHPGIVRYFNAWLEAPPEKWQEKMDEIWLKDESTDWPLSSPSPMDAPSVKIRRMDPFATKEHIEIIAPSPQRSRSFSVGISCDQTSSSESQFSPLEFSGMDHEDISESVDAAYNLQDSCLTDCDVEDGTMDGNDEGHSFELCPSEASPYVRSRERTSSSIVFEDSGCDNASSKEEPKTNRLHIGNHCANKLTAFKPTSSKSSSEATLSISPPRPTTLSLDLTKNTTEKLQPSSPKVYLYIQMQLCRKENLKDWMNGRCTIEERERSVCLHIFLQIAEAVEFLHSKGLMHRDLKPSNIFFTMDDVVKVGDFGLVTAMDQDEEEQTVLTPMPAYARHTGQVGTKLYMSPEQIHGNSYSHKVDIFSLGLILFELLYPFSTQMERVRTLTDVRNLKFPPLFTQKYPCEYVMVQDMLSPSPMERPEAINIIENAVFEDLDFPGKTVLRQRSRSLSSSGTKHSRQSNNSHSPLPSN
Experimental: In vitro compound profiling for recombinant GCN2, PERK, HRI, PKR, or IRE1 kinases were performed at Reaction Biology Corporation (Malvern, PA) using the HotSpot kinase assay. Briefly, all compounds provided for testing were dissolved in 10 mM DMSO stock solutions. […] Specific kinase/substrate mixtures and required cofactors were prepared in reaction buffer (20 mM Hepes (pH 7.5), 10 mM MgCl2, 1 mM EGTA, 0.02% Brij35, 0.02 mg/ml BSA, 0.1 mM Na3VO4, 2 mM DTT, 1% DMSO). Compounds were added to the kinase reaction mixture by Acoustic technology (Echo550; nanoliter range) and incubated for 20 min at room temperature. […] The reaction was incubated or 2 h at room temperature and kinase activity was detected by filter-binding method. IC50 values and curves were generated with GraphPad Prism 7 (GraphPad software).

IRE1 = target: T2, IRE1 (Homo sapiens, UniProt O75460); test: radiometric HotSpot kinase assay; assay type: biochemical; details: 10 μM compound, 10 μM ATP; read-out: % Enzyme inhibition at 10 μM, IRE1
T2 construct: purchased Reaction Biology Corporation (Malvern, PA)
T2 sequence (O75460 19-977): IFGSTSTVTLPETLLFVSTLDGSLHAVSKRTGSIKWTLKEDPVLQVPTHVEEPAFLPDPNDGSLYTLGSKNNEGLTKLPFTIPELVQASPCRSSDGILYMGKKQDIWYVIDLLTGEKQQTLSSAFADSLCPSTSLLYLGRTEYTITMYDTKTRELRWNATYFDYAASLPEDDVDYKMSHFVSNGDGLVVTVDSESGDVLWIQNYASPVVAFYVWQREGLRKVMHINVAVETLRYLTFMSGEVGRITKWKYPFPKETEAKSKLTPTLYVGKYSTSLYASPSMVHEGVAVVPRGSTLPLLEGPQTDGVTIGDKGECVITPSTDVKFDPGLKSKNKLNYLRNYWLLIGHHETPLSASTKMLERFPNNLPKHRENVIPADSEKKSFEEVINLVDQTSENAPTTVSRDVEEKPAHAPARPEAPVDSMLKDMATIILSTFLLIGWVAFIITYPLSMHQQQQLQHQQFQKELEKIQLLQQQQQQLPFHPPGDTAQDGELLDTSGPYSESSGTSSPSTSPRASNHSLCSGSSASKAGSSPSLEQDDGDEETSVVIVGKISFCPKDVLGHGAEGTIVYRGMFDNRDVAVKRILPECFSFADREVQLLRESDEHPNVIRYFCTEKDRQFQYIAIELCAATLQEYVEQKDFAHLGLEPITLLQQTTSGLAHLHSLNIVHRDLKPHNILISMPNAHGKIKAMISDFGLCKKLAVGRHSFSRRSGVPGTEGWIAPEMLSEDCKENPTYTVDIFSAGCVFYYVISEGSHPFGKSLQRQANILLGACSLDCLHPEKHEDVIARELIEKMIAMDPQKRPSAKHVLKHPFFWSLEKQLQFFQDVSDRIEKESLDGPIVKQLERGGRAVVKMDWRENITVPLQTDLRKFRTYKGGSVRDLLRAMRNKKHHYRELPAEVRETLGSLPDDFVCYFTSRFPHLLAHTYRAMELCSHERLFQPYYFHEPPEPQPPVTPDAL
Experimental: (§1) Compounds 1–9 were screened in a radiometric […] kinase assay against human GCN2 and other kinases involved in the UPR and ISR pathways (Table 1). […] The most soluble of the potent tool compounds (1 and 2) were selected for in vitro cell-based assays where the phosphorylation of eIF2α (p-eIF2α) was used as a readout for GCN2 inhibition.
(§2) In vitro compound profiling for recombinant GCN2, PERK, HRI, PKR, or IRE1 kinases were performed at Reaction Biology Corporation (Malvern, PA) using the HotSpot kinase assay. Briefly, all compounds provided for testing were dissolved in 10 mM DMSO stock solutions. Serial dilutions were conducted by epMotion 5070 in DMSO. Specific kinase/substrate mixtures and required cofactors were prepared in reaction buffer (20 mM Hepes (pH 7.5), 10 mM MgCl2, 1 mM EGTA, 0.02% Brij35, 0.02 mg/ml BSA, 0.1 mM Na3VO4, 2 mM DTT, 1% DMSO). Compounds were added to the kinase reaction mixture by Acoustic technology (Echo550; nanoliter range) and incubated for 20 min at room temperature. The kinase reaction was initiated by adding ^33P ATP to a final concentration of 10 μM for single point kinase activity reading or to the ATP Km of GCN2 for IC50 readings. The reaction was incubated or 2 h at room temperature and kinase activity was detected by filter-binding method. IC50 values and curves were generated with GraphPad Prism 7 (GraphPad software).

PKR = target: T3, PKR (Homo sapiens, UniProt P19525); test: radiometric HotSpot kinase assay; assay type: biochemical; details: for inhibition at 10 µM: 10 μM compound, 10 μM ATP, read-out: % Enzyme inhibition at 10 μM, PKR; for IC50: means of two independent experiments
T3 construct: purchased Reaction Biology Corporation (Malvern, PA)
T3 sequence (P19525 whole entry): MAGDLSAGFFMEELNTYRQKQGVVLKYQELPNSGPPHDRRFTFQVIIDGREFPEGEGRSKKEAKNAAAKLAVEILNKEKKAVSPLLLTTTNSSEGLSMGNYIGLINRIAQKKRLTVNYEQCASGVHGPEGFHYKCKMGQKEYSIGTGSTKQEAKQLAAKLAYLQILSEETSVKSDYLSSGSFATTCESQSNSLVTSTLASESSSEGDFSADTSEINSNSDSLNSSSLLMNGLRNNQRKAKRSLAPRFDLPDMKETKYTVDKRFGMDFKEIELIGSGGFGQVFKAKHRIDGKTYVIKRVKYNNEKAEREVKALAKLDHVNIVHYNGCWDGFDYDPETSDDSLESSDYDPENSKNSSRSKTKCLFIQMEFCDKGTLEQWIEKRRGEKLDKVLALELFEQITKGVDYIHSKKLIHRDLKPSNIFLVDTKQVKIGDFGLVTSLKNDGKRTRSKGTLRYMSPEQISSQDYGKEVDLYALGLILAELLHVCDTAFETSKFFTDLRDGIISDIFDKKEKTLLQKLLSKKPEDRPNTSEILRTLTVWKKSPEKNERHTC
Experimental: as §1, §2

HRI = target: T4, HRI (Homo sapiens, UniProt Q9BQI3); test: radiometric HotSpot kinase assay; assay type: biochemical; details: 10 μM compound, 10 μM ATP; read-out: % Enzyme inhibition at 10 μM, HRI
T4 construct: purchased Reaction Biology Corporation (Malvern, PA)
T4 sequence (Q9BQI3 whole entry): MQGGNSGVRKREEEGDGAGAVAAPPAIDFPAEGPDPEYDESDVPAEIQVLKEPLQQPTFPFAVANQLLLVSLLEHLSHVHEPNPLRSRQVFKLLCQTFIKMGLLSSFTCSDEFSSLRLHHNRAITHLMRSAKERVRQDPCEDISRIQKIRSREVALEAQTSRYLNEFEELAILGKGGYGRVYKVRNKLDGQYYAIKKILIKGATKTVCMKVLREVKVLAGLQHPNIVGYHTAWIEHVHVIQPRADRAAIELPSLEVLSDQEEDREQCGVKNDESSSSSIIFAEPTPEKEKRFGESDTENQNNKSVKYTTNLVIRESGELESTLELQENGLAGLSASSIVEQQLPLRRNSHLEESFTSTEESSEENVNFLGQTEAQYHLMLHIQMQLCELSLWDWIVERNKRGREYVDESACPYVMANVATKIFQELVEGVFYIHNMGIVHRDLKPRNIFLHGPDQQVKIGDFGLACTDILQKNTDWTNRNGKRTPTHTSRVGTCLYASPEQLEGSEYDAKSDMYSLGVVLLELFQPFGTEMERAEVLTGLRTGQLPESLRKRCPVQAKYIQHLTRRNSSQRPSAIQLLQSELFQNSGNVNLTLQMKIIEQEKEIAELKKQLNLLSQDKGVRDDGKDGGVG
Experimental: as §1, §2

HL-60(TB) = test: NCI-60 one-dose screen; assay type: cell-based; details: Homo sapiens, HL-60, 48 h, read-out: Percent growth inhibition
Kinetic solubility assay = assay type: physicochemical; details: for solubility (in words): PBS pH 7.4; for solubility at 2 h: aqueous buffer, kinetic from dmso stock, PBS pH 7.4, 25 °C
Experimental: Compound solubility was determined in PBS at pH 7.4 by Pharmaron, Inc. (Beijing, China). Briefly, all compounds and control solutions were prepared in DMSO at concentrations of 10 mM. Diclofenac was used as a positive control. 10 μL or 30 μL of each compound was added into a 96-well plate, followed by adding 990 μL or 970 μL, respectively, of PBS at pH 7.4. A stir stick was added to each well and wells were sealed using a molded PTDE/SIL 96-Well Plate Cover. […] After incubation the samples were transferred into the filter plate and filtered by Vacuum Manifold. The filtered samples were diluted with methanol to obtain 3 μM standards (STD). The samples were analyzed by LC-MS/MS against a standard of known concentration in DMSO. The solubility values of duplicate test compounds were calculated in Microsoft Excel using the following equation, where DF means dilution factor: Sample=AREASample×INJVOLStd×DFSample×STD/AREAStd×INJVOLSample

CCn1cc(Nc2ncc3nnn(-c4ccc(C(=O)OC)cc4)c3n2)cn1 [Compound 1, Methyl 4-(5-((1-ethyl-1H-pyrazol-4-yl)amino)-3H-[1,2,3]triazolo[4,5-d]pyrimidin-3-yl)benzoate]
inhibition at 10 µM (PERK): 24%
inhibition at 10 µM (IRE1): 37%
inhibition at 10 µM (PKR): 93%
IC50 (PKR): 119 nM
inhibition at 10 µM (HRI): 14%
inhibition at 10 µM (HL-60(TB)): 8.55%
solubility (in words) (Kinetic solubility assay): poor
solubility at 2 h (Kinetic solubility assay): 0.65 µM (≈ 0.237 µg/mL)

CCOc1ccc(-n2nnc3cnc(Nc4cnn(CC)c4)nc32)cc1 [Compound 2, 3-(4-Ethoxyphenyl)-N-(1-ethyl-1H-pyrazol-4-yl)-3H-[1,2,3]triazolo[4,5-d]pyrimidin-5-amine]
inhibition at 10 µM (PERK): < 10%
inhibition at 10 µM (IRE1): 20%
inhibition at 10 µM (PKR): 99%
IC50 (PKR): 39.9 nM
inhibition at 10 µM (HRI): < 10%
inhibition at 10 µM (HL-60(TB)): 24.6%
solubility (in words) (Kinetic solubility assay): poor
solubility at 2 h (Kinetic solubility assay): 0.31 µM (≈ 0.109 µg/mL)
